Key:
[1] = biological target: T1, Prostaglandin G/H synthase 2 (Homo sapiens, UniProt P35354); assay: Inhibitory activity against human COX-2 expressed in baculovirus infected Sf9 cells; assay type: cell-based
T1 sequence (P35354 whole entry): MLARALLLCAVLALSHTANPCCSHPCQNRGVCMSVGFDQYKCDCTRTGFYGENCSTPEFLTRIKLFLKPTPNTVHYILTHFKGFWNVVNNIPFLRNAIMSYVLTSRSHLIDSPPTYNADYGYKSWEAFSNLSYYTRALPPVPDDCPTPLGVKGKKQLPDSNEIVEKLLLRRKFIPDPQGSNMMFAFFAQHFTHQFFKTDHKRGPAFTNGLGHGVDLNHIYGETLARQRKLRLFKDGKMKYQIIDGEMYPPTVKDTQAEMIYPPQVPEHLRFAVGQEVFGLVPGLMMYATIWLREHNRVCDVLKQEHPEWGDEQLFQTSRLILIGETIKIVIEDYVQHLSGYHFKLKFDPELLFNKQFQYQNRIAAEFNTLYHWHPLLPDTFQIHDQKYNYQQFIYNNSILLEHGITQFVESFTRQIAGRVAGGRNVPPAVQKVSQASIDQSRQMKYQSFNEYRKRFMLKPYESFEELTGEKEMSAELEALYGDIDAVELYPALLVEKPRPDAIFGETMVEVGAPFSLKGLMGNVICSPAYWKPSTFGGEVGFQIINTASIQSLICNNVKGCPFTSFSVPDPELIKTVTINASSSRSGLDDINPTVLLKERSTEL

[2] = biological target: Prostaglandin G/H synthase 1 (Homo sapiens, UniProt P23219); assay: Inhibitory activity against human COX-1 expressed in baculovirus infected Sf9 cells
Chain of Prostaglandin G/H synthase 1 (P23219 whole entry): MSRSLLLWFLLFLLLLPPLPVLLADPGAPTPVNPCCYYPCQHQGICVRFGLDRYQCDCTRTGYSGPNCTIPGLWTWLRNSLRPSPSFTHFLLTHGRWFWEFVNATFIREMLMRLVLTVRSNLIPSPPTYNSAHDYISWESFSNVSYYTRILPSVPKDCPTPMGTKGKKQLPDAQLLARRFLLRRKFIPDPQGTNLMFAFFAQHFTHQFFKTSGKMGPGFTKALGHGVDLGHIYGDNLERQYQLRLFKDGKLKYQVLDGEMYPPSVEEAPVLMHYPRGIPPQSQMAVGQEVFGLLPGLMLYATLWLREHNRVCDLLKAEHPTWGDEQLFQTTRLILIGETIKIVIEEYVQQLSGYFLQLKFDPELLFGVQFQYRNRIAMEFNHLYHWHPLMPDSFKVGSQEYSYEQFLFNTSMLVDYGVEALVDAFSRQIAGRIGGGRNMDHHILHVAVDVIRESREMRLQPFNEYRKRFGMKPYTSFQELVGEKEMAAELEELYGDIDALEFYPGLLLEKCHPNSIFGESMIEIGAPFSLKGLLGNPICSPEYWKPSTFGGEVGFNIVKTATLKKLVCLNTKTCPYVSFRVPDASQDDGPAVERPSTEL

Compound | IC50 [1] | IC50 [2]
OCc1ccc(-c2ccsc2-c2ccc(F)cc2)cc1 | > 30000 nM | 350 nM
N#Cc1ccc(-c2ccsc2-c2ccc(F)cc2)cc1 | > 30000 nM | 210 nM
O=C(O)Cc1ccc(-c2ccsc2-c2ccc(F)cc2)cc1 | > 30000 nM | –
COC(=O)c1ccc(-c2ccsc2-c2ccc(F)cc2)cc1 | > 30000 nM | 17000 nM
CC(C)(O)c1cc(-c2ccc(F)cc2)c(-c2ccc(S(N)(=O)=O)cc2)s1 | 1600 nM | > 50000 nM
COC(=O)c1cc(-c2ccc(S(N)(=O)=O)cc2)c(-c2ccc(F)cc2)s1 | 70 nM | 1000 nM
COC(=O)c1cc(-c2ccc(F)cc2)c(-c2ccc(S(N)(=O)=O)cc2)s1 | > 30000 nM | > 50000 nM
CC(C)(O)c1cc(-c2ccc(S(N)(=O)=O)cc2)c(-c2ccc(F)cc2)s1 | 410 nM | 5400 nM
CC(C)c1cc(-c2ccc(S(N)(=O)=O)cc2)c(-c2ccc(F)cc2)s1 | 10 nM | 230 nM
CS(=O)(=O)c1ccc(-c2sc(Br)cc2-c2ccc(F)cc2)cc1 | 20 nM | 1100 nM
C[Se](=O)(=O)c1ccc(-c2ccsc2-c2ccc(F)cc2)cc1 | 550 nM | 32000 nM

The next lines start with the values.

IC50 [1] | IC50 [2] | Compound
7200 nM | > 50000 nM | CNS(=O)(=O)c1ccc(-c2ccsc2-c2ccc(F)cc2)cc1
> 30000 nM | > 50000 nM | O=C(O)c1ccc(-c2ccsc2-c2ccc(F)cc2)cc1
> 30000 nM | 980 nM | O=Cc1ccc(-c2ccsc2-c2ccc(F)cc2)cc1
30 nM | 1300 nM | NS(=O)(=O)c1ccc(-c2ccsc2-c2ccc(F)cc2)cc1
250 nM | > 100000 nM | CS(=O)(=O)c1ccc(-c2ccsc2-c2ccc(F)cc2)cc1
> 30000 nM | > 50000 nM | CCS(=O)(=O)c1ccc(-c2ccsc2-c2ccc(F)cc2)cc1
> 30000 nM | 15000 nM | C[S+]([O-])c1ccc(-c2ccsc2-c2ccc(F)cc2)cc1 (configuration not stated)
> 30000 nM | 340 nM | CSc1ccc(-c2ccsc2-c2ccc(F)cc2)cc1
5400 nM | > 50000 nM | CC(=O)NS(=O)(=O)c1ccc(-c2ccsc2-c2ccc(F)cc2)cc1
4300 nM | > 50000 nM | CS(=O)(=O)c1ccc(-c2sccc2-c2ccc(F)cc2)cc1
> 30000 nM | 3200 nM | NC(=O)c1ccc(-c2ccsc2-c2ccc(F)cc2)cc1
> 30000 nM | 750 nM | CC(=O)c1ccc(-c2ccsc2-c2ccc(F)cc2)cc1
670 nM | 2700 nM | NS(=O)(=O)c1ccc(-c2sccc2-c2ccc(F)cc2)cc1

Source: ChEMBL document CHEMBL1128822, “Synthesis and biological evaluation of 2,3-diarylthiophenes as selective Cox-2 and Cox-1 inhibitors” (Bioorg Med Chem Lett, 1995)
